Experimental data taken from patent US20210388012A1, “METHODS AND COMPOSITIONS FOR PRODRUG FORMS OF SPECTINOMYCIN AND SPECTINAMIDE ANALOGS” (priority 2018, published 2021).

Assays:
[1] = Metabolic stability, human liver microsomal degradation; type: in vitro ADME; settings: human liver microsomes; read-out: Metabolic Stability (Human) t½ (converted)
Description: (§1) LC-MS Method 2. Chromatographic separation was performed on an Acquity UPLC BEH C18 1.7 μm, 2.1×50 mm column (Waters Corporation, Milford, Mass.) or a Luna Omega 1.6 μm C18, 2.1×50 mm column (Phenomenex, Torrance, Calif.) using an Acquity ultra performance liquid chromatography system. Data were acquired using Masslynx v. 4.1 and analyzed using the Openlynx software suite. This was coupled to an Acquity photodiode array detector, which acquired UV data from 210-400 nm. The flow was then split, with half directed to an evaporative light scattering detector (ELSD) and half to an SQ mass spectrometer. The total flow rate was 1 mL/min. The sample injection volume was 10 μL. The UPLC column was maintained at 60° C. and the gradient program with either basic mobile phase (A1, 10 mM ammonium bicarbonate in MilliQ H2O; B1, 0.1% formic acid in acetonitrile) or formic mobile phase (A1, 0.1% formic acid in MilliQ H2O; B1, 0.1% formic acid in acetonitrile) based on the compounds' physical and chemical properties. The mass spectrometer was operated in positive-ion mode with electrospray ionization. The conditions were as follows; capillary voltage 3.4 kV, cone voltage 30 V, source temperature 130° C., desolvation temperature 400° C., desolvation gas 800 L/hr, cone gas 100 L/hr. A full scan range from m/z=110-1000 in 0.2 s was used to acquire MS data. The ELSD-drift tube temperature was set at 52° C.
The stability of compounds to human liver microsomal degradation, i.e., metabolic stability, was determined as described previously (see North, E. J., et al, Bioorg. Med. Chem. (2013) 21(9):2587-2599) and the rate of degradation was monitored by LC-MS analysis using multiple sampled time points as described herein above in LC-MS Method 2. Metabolic stability was evaluated via the half-life from least squares fit of the concentration remaining at the time points based on first-order kinetics.

[2] = in vitro; type: in vitro ADME; settings: human plasma, 37° C., read-out: Plasma Stability (Human) t½ (converted)
Description: as §1
Plasma stability was determined after incubation in human plasma for various incubation time, i.e., incubation times of 0, 3, 24, and 48 hour were used. DMSO stock solutions of test compounds were prepared at 10 mM concentration. 1.8 μL of each test compound was each added directly to 1.8 mL of human plasma to get the final concentration of 10 μM. This compound/matrix was mixed and 70 μL was transferred to 4 time points plates (each in triplicate wells). […] The plasma stability was evaluated via the half-life from least-squares fit of the multiple time points based on first-order kinetics.

[3] = Single ascending maximum tolerated dose study in rat; type: in vivo; settings: female Sprague-Dawley rats
Description: Several compounds were assessed in single ascending maximum tolerated studies. The compounds assessed were 1810; 3408, a prodrug form of compound 1810; 1599, a chloro homologue of compound 1810; and gentamicin, an antimicrobial associated with ototoxicity. The study was carried out in female Sprague-Dawley rats (n=3 per group). All the drug solutions were prepared in water and PLASMA-LYTE A (50:50; […] was obtained from Baxter Healthcare Corporation, Deerfield, Ill.). Each group of rats were fasted overnight with access to water aJ libitum and a fixed volume (2 mL) of drug-containing solution was administered via the jugular vein catheter. Food was withheld for 3 h post dosing. Different phases of the study were classified on five different speeds of i.v, administration; Phase 1: 5 sec, Phase 2: 30 sec, Phase 3: 5 min, Phase 4: 15 min, Phase 5: 30 min. In the first and second phases, a set of predefined dose levels: 10, 25, 50, 75, 100, 150, 300, 350, 400, 450 and 500 mg/kg. Escalation to the next higher dose was conditional upon absence of signs of acute toxicity following the immediate lower dose over a 24 h period. All animals were monitored by visual inspection focused on focus on changes in skin, fur, eyes, and also respiratory, circulatory, autonomic and central nervous systems, along with somatomotor activity and behavior pattern, including tremors, convulsions, salivation, diarrhea, lethargy, sleep and coma. A dose level was deemed an MTD if […] of acute toxicity were observed and that dose was chosen for the second phase of the study where the process was repeated to determine a toxic dose. For third, fourth and fifth phases, dosing solution was infused by a Instech tethering system (Instech Laboratories Inc., Plymouth Meeting, Pa.) where the animal is freely moving within its cage, the catheter connection is held in place by a vascular access harness and a swivel system, and the drug administration is performed via a Harvard Apparatus programmable syringe pump. After dosing, the tether was removed immediately after completion of the infusion and the catheter was flushed with (100 μL) PlasmaLyte A. Surviving animals from the previous dose with no signs of toxicity were re-used in either phases of these studies upon allowing a one day drug washout period.

Molecule	half-life [1] [h]	half-life at 10 µM [2] [h]	MTD ([3]; 5 second IV bolus) [mg/kg]	MTD ([3]; 30 second IV bolus) [mg/kg]	MTD ([3]; 5 minute IV infusion) [mg/kg]	MTD ([3]; 15 minute IV infusion) [mg/kg]	MTD ([3]; 30 minute IV infusion) [mg/kg]
CCOP(=O)(OCC)Oc1ccc(CC(=O)N[C@@H]2C[C@@H](C)O[C@H]3O[C@@H]4[C@@H](O)[C@H](NC)[C@H](O)[C@H](NC)[C@H]4O[C@]32O)nc1 [Compound 3906, Diethyl (6-(2-oxo-2-(((2R,4R,4aS, 5aR,6S,7S,8R,9S,9aR,10aS)-4a,7,9-trihydroxy-2-methyl-6,8-bis(methylamino)decahydro-2H-benzo[b]pyrano[2,3-e][1,4]dioxin-4-yl)amino)ethyl)pyridin-3-yl) phosphate]	3.61	19.5	–	–	–	–	–
CN[C@@H]1[C@H](O)[C@H](NC)[C@H]2O[C@]3(O)[C@H](O[C@@H]2[C@H]1O)O[C@H](C)C[C@@]3(O)CNCc1ccc(F)c(OP(=O)(O)O)c1 [Compound 3959, 2-fluoro-5-(((((2R,4R,4aS,5aR,6S,7S,8R,9S,9aR,10aS)-4,4a,7,9-tetrahydroxy-2-methyl-6,8-bis(methylamino)decahydro-2H-benzo[b]pyrano[2,3-e][1,4]dioxin-4-yl)methyl)amino)methyl)phenyl dihydrogen phosphate]	1.84	–	–	–	–	–	–
CN[C@@H]1[C@H](O)[C@H](NC)[C@H]2O[C@]3(O)[C@H](O[C@@H]2[C@H]1O)O[C@H](C)C[C@H]3NC(=O)Cc1ccc(-c2ccc(OP(=O)(O)O)cc2)cn1 [Compound 4074, 4-(6-(2-oxo-2-(((2R, 4R, 4aS, 5aR, 6S, 7S, 8R, 9S, 9aR, 10aS)-4a,7,9-trihydroxy-2-methyl-6,8-bis(methyl-amino)decahydro-2H-benzo[b]pyrano[2,3-e][1,4]dioxin-4-yl)amino)ethyl)pyridin-3-yl)phenyl dihydrogen phosphate]	2.98	< 0.0833	–	–	–	–	–
gentamicin [reference compound]	–	–	100	100	200	300	400
